Values of other authors in patent US7423042B2, “Compounds” (Glaxo Group Limited, priority 2005, dated 2008).

Tests used:
[1] = tested on: synthesis of pro-inflammatory proteins including IL-6, IL-8, GM-CSF, RANTES and COX-2; settings: a number of different cell types
[2] = tested on: TGF-β-induced increases in fibronectin and thrombospondin; settings: Laping et al., 2002

Compound | decreasing the synthesis of pro-inflammatory proteins (IL-6, IL-8, GM-CSF, RANTES, COX-2) [1] | inhibition of TGF-β-induced increases in fibronectin and thrombospondin [2]
C[S+]([O-])c1ccc(-c2nc(-c3ccncc3)c(-c3ccc(F)cc3)[nH]2)cc1 (stereo not drawn) [SB-203580] | effective | –
COc1nccc(-c2c(-c3ccc(F)cc3)ncn2C2CCNCC2)n1 [SB-242235] | – | inhibited
Fc1ccc(-c2nc3n(c2-c2ccncc2)CCS3)cc1 [SK&F 86002] | effective | –
